From patent US5652247A, “Carbostyril derivatives” (Otsuka Pharmaceutical Co., Ltd, priority 1989, dated 1997)

Target: T1, V1 receptor (Rattus norvegicus, UniProt P30560)
T1 construct: rat liver plasma membrane preparations; from tissue; host or cells: rat liver plasma membranes
Test: V1 receptor binding assay
Conditions: [H]^3-Arg-vasopressin 2×10^-10 M, rat liver plasma membrane, 37° C., 10 minutes, pH 8.0

T1 sequence (P30560 whole entry): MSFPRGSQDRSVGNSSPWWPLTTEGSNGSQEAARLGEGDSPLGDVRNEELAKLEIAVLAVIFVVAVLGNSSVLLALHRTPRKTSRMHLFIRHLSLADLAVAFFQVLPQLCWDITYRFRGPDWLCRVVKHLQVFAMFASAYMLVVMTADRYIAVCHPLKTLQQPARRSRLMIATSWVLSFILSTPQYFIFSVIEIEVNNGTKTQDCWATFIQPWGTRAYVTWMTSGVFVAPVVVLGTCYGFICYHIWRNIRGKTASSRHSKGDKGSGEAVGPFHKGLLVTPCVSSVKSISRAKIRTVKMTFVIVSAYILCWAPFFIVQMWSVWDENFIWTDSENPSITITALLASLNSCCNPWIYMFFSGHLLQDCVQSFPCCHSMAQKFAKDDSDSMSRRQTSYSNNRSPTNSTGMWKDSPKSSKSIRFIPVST

SMILES	IC50 [nM]
C#CCc1ccc(C(=O)N2CCC(N3C(=O)CCc4ccccc43)CC2)cc1 [Example 96, 1-[1-(4-Propargylbenzoyl)-4-piperidinyl]-3,4-dihydrocarbostyril]	600
CN(C)c1ccc(S(=O)(=O)CCCCCOc2ccc(C(=O)N3CCC(N4C(=O)CCc5ccccc54)CC3)cc2)cc1 [Example 290, 1-{1-(4-[5-(4-Dimethylaminophenylsulfonyl)pentyloxy]benzoyl)-4-piperidinyl}-3,4-dihydrocarbostyril]	300
